Experimental data taken from article PMC9479156 (Frontiers in Pharmacology, 2022).
Where two headings read alike, the source gives them in different places. Marks after values point to notes of the source that are not given here.

Experiments:
[1] = tested on: HepG2 liver hepatocellular carcinoma; test: MTT cytotoxicity assay HepG2; type: cell-based, human; details: for IC50: Homo sapiens, read-out: IC50 HepG2; for SI, selectivity index IC50 normal cell line/IC50 tumour cell line: LO2/HepG2
Protocol: (§1) Proliferative and non-proliferative mammalian cell lines: human liver and lung cancer cell lines HepG2 and A549, and immortalized normal liver LO2 and lung BEAS-2B cells were purchased from ATCC (Manassas, VA, United States). Cells were cultured in RPMI-1640 medium supplemented with 10% fetal bovine serum and antibiotics penicillin (50 U/mL) and streptomycin (50 μg/ml; Invitrogen, United Kingdom). All cells were incubated at 37°C in a 5% humidified CO2 incubator.
(§2) All test compounds were dissolved in DMSO at a final concentration of 50 mM and stored at −20°C before use. Cytotoxicity was assessed with A549, HepG2, BEAS-2B and LO2 cells. The MTT assay with 3-(4,5-dimethylthiazole-2yl)-2,5-diphenyltetrazolium bromide (5 mg/ml) was performed as previously described ([Ng et al., 2022]). Briefly, 4 × 10^3 cells per well were seeded in 96-well plates before drug treatment. After overnight cell culture, the cells were exposed to different concentrations of selected compounds (0.19–100 μM) for 72 h. Cells without drug treatment were used as control. Next, 10 μl of the MTT solution was added to each well and incubated at 37°C for another 4 h. Solubilization buffer (100 μl) was then added (10 mM HCl in a solution of 10% of SDS) and incubated overnight. The absorbance A at 570 nm was measured on the next day. The percentage of cell viability was calculated using the following formula: Cell viability (%) = Atreated/Acontrol × 100. Dose response curves for all assays are given in the Supplementary Figures S3–S6.
(§3) Cytotoxicity was assessed for each of artemisinin, DHA and artemether, and the amino-artemisinins artemiside and artemisone, and celastrol against A549 human lung carcinoma, BEAS-2B non-tumorigenic human bronchial epithelium, HepG2 liver hepatocellular carcinoma and LO2 human normal hepatocytes using the MTT assay ([Ng et al., 2022]). Data are presented in Table 4, and dose response curves are given in the Supplementary Figures S3–S6.

[2] = tested on: HepG2 liver hepatocellular carcinoma; test: Cytotoxicity drug combination (isobole) assay HepG2; type: cell-based, human
Protocol: For the drug combination inhibitory assays, six drug preparations, of which four comprised combinations of either artemiside or artemisone with celastrol in a fixed ratio of 80:20, 60:40, 40:60, and 20:80 were prepared and screened against HepG2 liver hepatocellular carcinoma and LO2 human normal hepatocytes respectively. Two of these six preparations employed each of artemiside, artemisone or celastrol alone at a concentration approximately 5–7 times higher than the IC50 of the individual drug as presented in Table 4. […] Thus, six combinations for artemiside (µM) and celastrol (µM) prepared were 500:0, 400:4, 300:8, 200:12, 100:16, and 0:20, respectively.
As above for the malaria combination assays, a mean ΣFIC<1.0 represents a synergistic interaction, >1.3 represents an antagonistic interaction and ΣFIC = 1 represents an indifferent or additive interaction. Additivity, synergism and antagonism were also be established from the linear plots constructed from the FIC values of each of the drugs. A concave hyperbolic plot indicates synergism, a convex hyperbolic plot indicates an antagonistic interaction, and a straight line indicates an additive interaction. Isobole analysis of the combinations of each of artemiside and artemisone in combination with celastrol was performed against HepG2 and LO2 cells respectively. In Figure 5 is presented the isoboles for each drug combination.
Next, combinations of each of artemiside and artemisone with celastrol were examined, according to the method used to establish additivity/synergism described above. […] Against the normal hepatocyte LO2 cell line, whilst the interaction of artemisone with celastrol was synergistic, that of artemiside was additive. Synergism and additivity were also evident from the linear plots determined from the FIC values of each of the drugs (Table 5 and Figure 6). Thus, synergism is confirmed for combinations of the amino-artemisinins with celastrol against the HepG2 carcinoma cell line, and for artemisone-celastrol against human normal hepatocyte LO2.

[3] = tested on: A549 human lung carcinoma; test: MTT cytotoxicity assay A549; type: cell-based; details: for SI, selectivity index IC50 normal cell line/IC50 tumour cell line: BEAS-2B/A549; for IC50: Homo sapiens, read-out: IC50 A549
Protocol: as §1, §2, §3

[4] = tested on: asexual blood stage P. falciparum W2 (multidrug resistant); set-up: method as in Coertzen et al., 2018; Wong et al., 2019; details: ref Coertzen et al., 2018, Wong et al., 2019, cited from earlier work
[5] = tested on: asexual blood stage Pf NF54; test: Fixed-ratio isobole drug combination assay (SYBR Green I); type: cell-based, Plasmodium falciparum
Protocol: The in vitro interactions of celastrol with artemisone and MB was determined using a fixed-ratio isobole analysis on Pf NF54 asexual parasites (SYBR Green I-based fluorescence). […] The fractional inhibitory concentration (FIC) for each drug in the combination was calculated as follows:
FIC = IC50 of drug A in combination with drug B/IC50 of drug A
The paired FIC values for the drugs in each combination were linearly plotted to provide the isobologram. The ΣFIC of FIC of drug A in combination with FIC of drug B was determined by calculating the mean FIC value, to obtain the representative FIC value for the drug combination. Data obtained were analysed in Excel, and sigmoidal dose-response curves and isobolograms were plotted using GraphPad 6.0. Experiments were performed in triplicate, and repeated 3 times.
As previously recorded for each of artemiside and artemisone in combination with MB ([Coertzen et al., 2018]), drug-drug interactions were monitored through evaluation of fractional inhibitory concentration (FIC) as determined by isobolograms. A mean ΣFIC<1.0 represents a synergistic interaction, >1.3 an antagonistic interaction and ΣFIC = 1 an indifferent or additive interaction. Isobologram analysis of the combinations of each of artemisone and MB in combination with celastrol was performed against the asexual stages of Pf NF54 using the SYBR Green I based assay. In Table 3 are shown the calculated FIC values for the independent combinations at each ratio as well as the ∑FIC values for each combination. In Figure 5 are presented the independent isoboles for each drug combination.

[6] = tested on: BEAS-2B non-tumorigenic human bronchial epithelium; test: MTT cytotoxicity assay BEAS-2B; type: cell-based; details: 72 h, read-out: IC50 BEAS-2B
Protocol: as §1, §2, §3

[7] = artemisone:celastrol drug ratio 20:80, HepG2
[8] = artemisone:celastrol drug ratio 40:60, HepG2
[9] = artemisone:celastrol drug ratio 60:40, HepG2
[10] = artemisone:celastrol drug ratio 80:20, HepG2
[11] = artemisone:celastrol drug ratio 20:80, Pf NF54
[12] = artemisone:celastrol drug ratio 40:60, Pf NF54
[13] = artemisone:celastrol drug ratio 60:40, Pf NF54
[14] = artemisone:celastrol drug ratio 80:20, Pf NF54

| SMILES | SI, selectivity index IC50 normal cell line/IC50 tumour cell line [1] | FIC [2, 7] | FIC [2, 8] | FIC [2, 9] | FIC [2, 10] | SI, selectivity index IC50 normal cell line/IC50 tumour cell line [3] | FIC [5, 11] | FIC [5, 12] | FIC [5, 13] | FIC [5, 14] | also measured |
| --- | --- | --- | --- | --- | --- | --- | --- | --- | --- | --- | --- |
| C[C@H]1[C@H](N2CCS(=O)(=O)CC2)O[C@@H]2O[C@@]3(C)CC[C@H]4[C@H](C)CC[C@@H]1[C@@]24OO3 [Artemisone, artemisone] | >171 | 0.3 | 0.36 | 0.48 | 0.76 | <0.7 | 0.12 | 0.24 | 0.39 | 0.69 | IC50 ([1]; HepG2, MTT, 72 h, ± SD): 0.58 ± 0.2 µM; SI, selectivity index IC50 normal cell line/IC50 tumour cell line ([1]; listed as artemisone): > 170; IC50 ([3]; A549, MTT, 72 h, ± SD): > 100 µM; IC50 ([4]; asexual blood stage, SYBR Green I, mean ± SEM): 0.0016 ± 0.0004 µM; RI = IC50 W2/IC50 NF54 [4]: 1.36^f; IC50 ([6]; MTT, ± SD): 73.6 ± 1.4 µM |
| CC1=C(O)C(=O)C=C2C1=CC=C1[C@@]2(C)CC[C@@]2(C)[C@@H]3C[C@](C)(C(=O)O)CC[C@]3(C)CC[C@]12C [Celastrol, celastrol] | 0.83 | 0.88 | 0.4 | 0.23 | 0.14 | 0.16 | 0.93 | 0.76 | 0.60 | 0.50 | IC50 ([1]; HepG2, 72 h): 0.94 ± 0.1 µM; SI, selectivity index IC50 normal cell line/IC50 tumour cell line ([1]; listed as celastrol): < 1; FIC ([2]; artemiside:celastrol drug ratio 20:80, HepG2): 0.35; FIC ([2]; artemiside:celastrol drug ratio 40:60, HepG2): 0.34; FIC ([2]; artemiside:celastrol drug ratio 60:40, HepG2): 0.14; FIC ([2]; artemiside:celastrol drug ratio 80:20, HepG2): 0.08; IC50 ([3]; A549, 72 h): 2.83 ± 0.12 µM; FIC ([5]; MB:celastrol drug ratio 40:60, Pf NF54): 1.02; FIC ([5]; MB:celastrol drug ratio 60:40, Pf NF54): 0.72; FIC ([5]; MB:celastrol drug ratio 80:20, Pf NF54): 0.41; IC50 [6]: 0.45 ± 0.1 µM |
